According to US20160151444A1, “METHODS FOR THE PREVENTION OR TREATMENT OF VESSEL OCCLUSION INJURY” (Stealth Peptides International, Inc., priority 2009, published 2016):
Non-standard residues stand in square brackets, D forms with d. No end group written: not given here.

How the values were obtained:
[1] = tested on: several mammalian cell types; conditions: energy-independent manner; Zhao et al. 2003; cited from earlier work
mu-opioid receptor = conditions: stated in the description, no data shown; cited from earlier work
[2] = tested on: subjects with STEMI and hypertension; experiment: EMBRACE STEMI trial, subjects with anterior STEMI undergoing PCI; hypertensive subgroup compared; assay type: in vivo, human
Experimental: The EMBRACE STEMI study is known in the art (see e.g., Chakrabarti et al., Am Heart J, 165(4):509-514 (2013), the content of which is incorporate by reference in its entirety). Briefly, the EMBRACE STEMI trial is a multicenter, randomized, double-blind, placebo-controlled study. The study design was approved by institutional and national regulatory bodies and ethical committees. Multiple safety reviews were performed by an independent Data and Safety Monitoring Board throughout the course of the trial. All subjects provided written informed consent prior to randomization.
Subjects aged 18 to 85 years with anterior STEMI undergoing first-time percutaneous coronary intervention (PCI) plus stenting with an anticipated time from ischemic symptoms to time of balloon inflation <4 hours, with >0.1 mV ST-segment elevation in at least 2 contiguous precordial leads were enrolled. Major exclusion criteria included a history of prior myocardial infarction (MI), previous heart failure (e.g., known left ventricle ejection fraction (LVEF)<30% prior to the qualifying infarct), and cardiogenic shock.
To assess efficacy in large MIs that had not sustained reperfusion injury, only subjects who met angiographic and post-PCI inclusion criteria were included in the primary analysis population (PAP) (FIG. 7): (1) the presence of a proximal/mid left anterior descending (LAD) occlusion with pre-PCI TIMI flow 0 or 1 and no visible evidence of significant coronary collateral flow; (2) dilation of only the LAD; (3) successful PCI of the LAD with post-PCI TIMI flow >2; and (4) no evidence of a second MI within 72 hours of the initial PCI which would confound the infarct size determination.
Subjects were randomized in a double blind 1:1 fashion to receive either D-Arg-2′,6′-Dmt-Lys-Phe-NH2 of at 0.05 mg/kg/hr or a control placebo by IV injection (Treatment group: n=58; Control group: n=60). D-Arg-2′,6′-Dmt-Lys-Phe-NH2 was administered >15 minutes, but <60 minutes prior to PCI and for 1 hour following reperfusion. Subjects underwent cardiac magnetic resonance imaging (MRI) at 4±1 days and again at 30±7 days post-PCI. Follow-up visits were conducted at discharge, at 30±7 days, 90±14 days, and 6±1.5 months post-PCI.
The primary end point of the study was infarct size, or the area under the curve (AUC) of creatine kinase-MB (CK-MB) enzyme over 72 hours following PCI with the values log transformed and adjusted for the percent of artery distal to the occlusion and duration of symptoms (two variables known to confound the estimation of infarct size).19-21 Secondary end points included the AUCO-72 of troponin I, peak cardiac enzymes, the ratio of the volume of infarcted myocardium (late contrast gadolinium enhancement) to the left ventricular (LV) mass on cardiac Mill at day 4±1, day 30±7, and the change (4) in ratios from day 4±1 to day 30±7, measures of myocardial structure and function (left ventricular ejection fraction (LVEF), left ventricular end systolic volume (LVESV), and left ventricular end diastolic volume (LVEDV)) at day 4±1, day 30±7, and the change (4) in these measures from day 4±1 to day 30±7, TIMI myocardial perfusion grade (TMPG), TIMI flow grade (TFG), corrected TIMI frame count post-PCI and complete ST-segment elevation resolution (>70%) by the Schroder criteria. Laboratory measures of congestive heart failure (CHF) (N-terminal pro-B type natriuretic […]), and renal function (serum creatinine, estimated glomerular filtration rate, cystatin C, and blood urea nitrogen) were also evaluated.
The incidence of the clinical composite endpoint of all-cause death, new-onset CHF beginning >24 hours post-PCI and within the duration of the index hospitalization, and CHF re-hospitalization was also determined through 30±7 days and 6±1.5 months post-PCI. Safety endpoints included treatment emergent adverse events (TEAE). The pharmacokinetic profile of D-Arg-2′6′-Dmt-Lys-Phe-NH2 was determined based on the drug serum concentration. […]

[3] = tested on: New Zealand white rabbits; experiment: Rabbit model of acute myocardial ischemia and reperfusion (coronary occlusion), infarct size by histomorphometry; assay type: in vivo
Experimental: New Zealand white rabbits were used in this study. The rabbits were males and >10 weeks in age. Environmental controls in the animal rooms were set to maintain temperatures of 61° to 72° F. and relative humidity between 30% and 70%. Room temperature and humidity were recorded hourly, and monitored daily. There were approximately 10-15 air exchanges per hour in the animal rooms. Photoperiod was 12-hr light/12-hr dark (via fluorescent lighting) with exceptions as necessary to accommodate dosing and data collection. Routine daily observations were performed. Harlan Teklad, Certified Diet (2030C), rabbit diet was provided approximately 180 grams per day from arrival to the facility. In addition, fresh fruits and vegetables were given to the rabbit 3 times a week.
The peptide D-Arg-2′6′-Dmt-Lys-Phe-NH2 (sterile lyophilized powder) was used as the test article. Dosing solutions were formulated at no more than 1 mg/ml, and were delivered via continuous infusion (IV) at a constant rate (e.g., 50 μL/kg/min). Normal saline (0.9% NaCl) was used as a control.
The test/vehicle articles were given intravenously, under general anesthesia, in order to mimic the expected route of administration in the clinical setting of AMI and PTCA. Intravenous infusion was administered via a peripheral vein using a Kd Scientific infusion pump (Holliston, Mass. 01746) at a constant volume (e.g., 50 μL/kg/min).
The study followed a predetermined placebo and sham controlled design. In short, 10-20 healthy, acclimatized, male rabbits were assigned to one of three study arms (approximately 2-10 animals per group). Arm A (n=10, CTRL/PLAC) includes animals treated with vehicle (vehicle; VEH, IV); Arm B (n=10, treated) includes animals treated with peptide; Arm C (n=2, SHAM) includes sham-operated time-controls treated with vehicle (vehicle; VEH, IV) or peptide.
In all cases, treatments were started approximately 10 min after the onset of a 30 min ischemic insult (coronary occlusion) and continued for up to 3 h following reperfusion. In all cases, cardiovascular function was monitored both prior to and during ischemia, as well as for up to 180 min (3 h) post-reperfusion. The experiments were terminated 3 h post-reperfusion (end of study); irreversible myocardial injury (infarct size by histomorphometery) at this time-point was evaluated, and was the primary-end-point of the study.
General anesthesia was induced intramuscularly (IM) with a ketamine (˜35-50 mg/kg)/xylazine (˜5-10 mg/kg) mixture. A venous catheter was placed in a peripheral vein (e.g., ear) for the administration of anesthetics. In order to preserve autonomic function, anesthesia was maintained with continuous infusions of propofol (˜8-30 mg/kg/hour) and ketamine (˜1.2-2.4 mg/kg/hr). A cuffed tracheal tube was placed via a tracheotomy (ventral midline incision) and used to mechanically ventilate the lungs with a 95% O2/5% CO2 mixture via a volume-cycled animal ventilator (˜40 breaths/minute with a tidal volume of −12.5 ml/kg) in order to sustain PaCO2 values broadly within the physiological range.
Once a surgical plane of anesthesia was reached, either transthoracic or needle electrodes forming two standard ECG leads (e.g., lead II, aVF, V2) were placed. A cervical cut-down exposed a carotid artery, which was isolated, dissected free from the surrounding tissue and cannulated with a dual-sensor high-fidelity micromanometer catheter (Millar Instruments); the tip of this catheter was advanced into the left-ventricle (LV) retrogradely across the aortic valve, in order to simultaneously determine aortic (root, proximal transducer) and left-ventricular (distal transducer) pressures. The carotid cut-down also exposed the jugular vein, which was cannulated with a hollow injection catheter (for blood sampling). Finally, an additional venous catheter was placed in a peripheral vein (e.g., ear) for the administration of vehicle/test articles. […]

[4] = 30 min ischemia, 180 min reperfusion, IV continuous infusion from 10 min of ischemia, n = 10, means with standard errors
[5] = peptide group versus placebo group, p < 0.05

Substance: 2′,6′-Dmt-D-Arg-Phe-Lys-NH2
- Penetration of the plasma membrane [1]: readily penetrates the plasma membrane

Substance: Tyr-D-Arg-Phe-Lys-NH2
- Mu-opioid receptor agonist activity (mu-opioid receptor): has mu-opioid receptor agonist activity

Substance: F[dR]FK-NH2
- Mu-opioid receptor agonist activity (mu-opioid receptor): does not have mu-opioid receptor agonist activity

Substance: D-Arg-2′,6′-Dmt-Lys-Phe-NH2 [D-Arg-2′6′-Dmt-Lys-Phe-NH2]
- Proportion of complete or partial ST segment resolution ([2]; 24 hours post-PCI, hypertensive subjects, control 88.2%, p=0.05): 100%
- Mean infarct volume on cardiac MRI ([2]; day 4±1, 0.05 mg/kg/hr IV, control 52.6±30.2, p=0.03): 35.8 ± 22.8 mL
- Mean left ventricle (LV) mass ([2]; hypertensive subjects, 0.05 mg/kg/hr IV, control 162.2±52.4, p=0.08): 141.5±53.2 grams
- New onset CHF during the first 8 hours post-PCI ([2]; hypertensive subjects, control 11 incidents): 5 incidents
- New onset CHF <24 hours post-PCI ([2]; hypertensive subjects, control 15 incidents): 8 incidents
- Myocardial edema on cardiac MRI ([2]; hypertensive subjects, control 60.9±20.5, p=0.053): 48.9±22.0
- Mu-opioid receptor agonist activity (mu-opioid receptor): does not have mu-opioid receptor agonist activity
- Myocardial Area (%) IA/AR (infarcted area to area of risk) [3, 4]: 24.7 ± 4.7%
- Myocardial Area (%) IA/LV (infarcted area to left ventricular area) [3, 4]: 16.2 ± 3.4%
- Infarct size compared to the control ([3]; induced cardiac ischemia, FIGS. 4A-4E): decreased infarct size
- IA/AR, % versus placebo [3, 5]: −32 ± 13%
- IA/LV, % versus placebo [3, 5]: −24 ± 16%
- Myocardial salvage with shorter treatment ([3]; treatment for less than 3 hours after reperfusion, i.e., 30 min, data not shown): comparable myocardial salvage
